Publication PMC9875641, “Ophthalmic Solution of Smart Supramolecular Peptides to Capture Semaphorin 4D against Diabetic Retinopathy” (Advanced Science, 2022)

Target: T1, sSema 4D (Homo sapiens, UniProt Q92854)
T1 construct: purchased Novoprotein Ltd. (Suzhou, China)
T1 sequence (Q92854 22-734 limits assumed): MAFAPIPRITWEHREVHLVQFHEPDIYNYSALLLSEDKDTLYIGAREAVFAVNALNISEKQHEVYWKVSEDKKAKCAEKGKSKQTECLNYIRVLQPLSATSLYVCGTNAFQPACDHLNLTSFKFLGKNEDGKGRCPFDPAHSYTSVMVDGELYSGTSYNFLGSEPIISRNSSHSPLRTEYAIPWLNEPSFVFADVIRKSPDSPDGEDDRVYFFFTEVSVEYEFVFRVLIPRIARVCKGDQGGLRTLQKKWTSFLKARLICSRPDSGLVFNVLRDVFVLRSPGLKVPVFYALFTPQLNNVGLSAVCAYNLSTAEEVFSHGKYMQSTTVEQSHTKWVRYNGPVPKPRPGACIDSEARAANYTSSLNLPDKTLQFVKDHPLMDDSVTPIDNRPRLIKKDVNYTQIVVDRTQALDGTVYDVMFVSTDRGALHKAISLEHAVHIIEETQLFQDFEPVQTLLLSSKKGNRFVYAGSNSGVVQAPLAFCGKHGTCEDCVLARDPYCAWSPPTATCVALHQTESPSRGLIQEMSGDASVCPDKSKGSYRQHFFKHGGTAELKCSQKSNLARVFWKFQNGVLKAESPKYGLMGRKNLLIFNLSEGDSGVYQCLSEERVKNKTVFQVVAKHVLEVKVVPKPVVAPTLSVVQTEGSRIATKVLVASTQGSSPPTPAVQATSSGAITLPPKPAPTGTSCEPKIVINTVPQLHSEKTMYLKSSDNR
Test: ELISA binding affinity of TPs and SSPs to sSema 4D (and BSA)
Procedure: To carry out the library screening, we first labeled the sSema4D with fluorescein isothiocyanate isomer (FITC), as shown in Figure 2E. Next, ≈10^6 beads library was incubated with FITC‐labeled sSema4D for 6 hours. The beads were thoroughly washed with DMF, water and methanol. Finally, under the fluorescence microscope, the beads with […] to sSema4D or FITC‐labeled sSema4D through noncovalent bonding were identified in Figure 2F. We selected twelve strongest putative fluorescent beads by physical separation. Subsequently, the corresponding peptides were cleaved off with BrCN from beads and analyzed by automatic Edman sequencing. The structures and sequence of transformable peptides (TPs) were determined and summarized (Figure S2, Supporting Information). TP‐1 to TP‐12 were resynthesized into solid phase and purified by high performance liquid chromatography (HPLC). The binding affinity of TPs toward sSema 4D was measured by enzyme‐linked immunosorbent assay (ELISA) and surface plasmon resonance imaging (SPRi). […] TP‐2 and TP‐7 were selected as the candidate TP binding sSema 4D to construct SSP. Subsequent SSP monomers (SSP‐1, sequence: C16‐FFVLK‐KQKRPRH; SSP‐2 C16‐FFVLK‐KNKAAKG) were synthesized and characterized by HPLC and Matrix‐assisted laser desorption/ionization time‐of‐flight mass spectrometry (MALDI‐TOF‐MS).

| Substance | binding affinity with sSema4D on ELISA, compared with TPs |
| --- | --- |
| C16‐FFVLK‐KNKAAKG [SSP-2, smart supramolecular peptide, C16‐FFVLK‐KNKAAKG, self-assembling, captures sSema4D] | higher binding affinity compared with TPs |
| C16‐FFVLK‐KQKRPRH [SSP-1, smart supramolecular peptide, C16‐FFVLK‐KQKRPRH, self-assembling, captures sSema4D] | higher binding affinity compared with TPs |
